In PubChem BioAssay AID330 (DTP/NCI, 2004):
Values joined by “and” are separate entries in the source; they are usually repeats but may differ in a detail not shown here. Equal entries are not always repeated. Inconclusive results and toxic doses are left out. Rule for the calls: active = survival T/C of 150% or more; inactive = T/C below 125% in these data. Peptide text beside a SMILES is read from it. * marks the point of attachment. Cbz = O=C(OCc1ccccc1)*

Tested on: P388 leukemia ip, CD2F1 mice, survival T/C
Test: NCI In Vivo Anticancer Drug Screen. Data for tumor model P388 Leukemia (intraperitoneal) in CD2F1 (CDF1) mice
Conditions: endpoint: median survival time, higher = longer survival
Summary of the method: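 Mice carrying the transplanted tumor received test compound or vehicle. Survival was recorded in each group, and the value is the treated-group measurement divided by that of the vehicle-treated control group.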

[1] = dose: 50.0 mg/kg/injection, schedule: Q01DX005 (ip), vehicle: saline with Tween-80
[2] = dose: 100.0 mg/kg/injection, schedule: Q01DX005 (ip), vehicle: saline with Tween-80
[3] = dose: 200.0 mg/kg/injection, schedule: Q01DX005 (ip), vehicle: saline with Tween-80
[4] = dose: 50.0 mg/kg/injection, schedule: Q01DX005 (ip), vehicle: Klucel (hydroxypropylcellulose) (HPC)
[5] = dose: 100.0 mg/kg/injection, schedule: Q01DX005 (ip), vehicle: Klucel (hydroxypropylcellulose) (HPC)
[6] = dose: 50.0 mg/kg/injection, schedule: Q01DX009 (ip), vehicle: saline
[7] = dose: 100.0 mg/kg/injection, schedule: Q01DX009 (ip), vehicle: saline
[8] = dose: 200.0 mg/kg/injection, schedule: Q01DX009 (ip), vehicle: saline
[9] = dose: 50.0 mg/kg/injection, schedule: Q01DX005 (ip), vehicle: saline
[10] = dose: 100.0 mg/kg/injection, schedule: Q01DX005 (ip), vehicle: saline
[11] = dose: 200.0 mg/kg/injection, schedule: Q01DX005 (ip), vehicle: saline
[12] = dose: 100.0 mg/kg/injection, schedule: Q04DX002 (ip), vehicle: Klucel (hydroxypropylcellulose) (HPC)

Measured: T/C

CSCCC(NC(=O)C1CCCN1C(=O)OCc1ccccc1)C(=O)O (stereo not drawn) (Cbz-Pro-Met-OH; configuration not given here)
inactive: [1] 104 % of control | [2] 106 % of control | [3] 105 % of control

O.Oc1ccccc1C=NCCC[N-]CCCN=Cc1ccccc1O.[Co]
inactive: dose: 3.13 mg/kg/injection, schedule: Q01DX009 (ip), vehicle: saline with Tween-80 102 % of control | dose: 6.25 mg/kg/injection, schedule: Q01DX009 (ip), vehicle: saline with Tween-80 102 % of control | dose: 12.5 mg/kg/injection, schedule: Q01DX009 (ip), vehicle: saline with Tween-80 123 % of control | dose: 25.0 mg/kg/injection, schedule: Q01DX009 (ip), vehicle: saline with Tween-80 100 % of control and 115 % of control

CCCCCCCCCCCCCCCCS[As](C)C
inactive: [1] 92 % of control | [2] 100 % of control | [3] 96 % of control

Clc1ccc(Nc2nnc(-c3ccc4c(c3)OCO4)o2)cc1
inactive: [4] 93 % of control | [5] 101 % of control | dose: 200.0 mg/kg/injection, schedule: Q01DX005 (ip), vehicle: Klucel (hydroxypropylcellulose) (HPC) 93 % of control

CN(C)CNC(=O)c1ccccc1
inactive: dose: 1.25 mg/kg/injection, schedule: Q01DX009 (ip), vehicle: water 99 % of control | dose: 2.5 mg/kg/injection, schedule: Q01DX009 (ip), vehicle: water 121 % of control | dose: 5.0 mg/kg/injection, schedule: Q01DX009 (ip), vehicle: water 99 % of control | dose: 10.0 mg/kg/injection, schedule: Q01DX009 (ip), vehicle: water 100 % of control | dose: 20.0 mg/kg/injection, schedule: Q01DX009 (ip), vehicle: water 99 % of control

CCC[N+]1([O-])CCOCC1
inactive: [6] 102 % of control | [7] 100 % of control | [8] 94 % of control

CN1CCCC1CN1CCCC1 (stereo unspecified)
inactive: [9] 107 % of control | [10] 102 % of control | [11] 98 % of control

C#CC[N+]1(C)CCC=C(C(=O)OC)C1 (stereo unspecified)
inactive: dose: 25.0 mg/kg/injection, schedule: Q01DX009 (ip), vehicle: saline 97 % of control

CCC[CH2][Sn]1([CH2]CCC)[O]C(=O)CC[S]1
inactive: dose: 3.13 mg/kg/injection, schedule: Q01DX005 (ip), vehicle: saline with Tween-80 121 % of control | dose: 6.25 mg/kg/injection, schedule: Q01DX005 (ip), vehicle: saline with Tween-80 115 % of control and 120 % of control | dose: 12.5 mg/kg/injection, schedule: Q01DX005 (ip), vehicle: saline with Tween-80 121 % of control

CC/C([O-])=C1/C(=O)N(c2ccccc2)N=C1C.CC/C([O-])=C1/C(=O)N(c2ccccc2)N=C1C.[Cu+2]
inactive: dose: 15.0 mg/kg/injection, schedule: Q01DX005 (ip), vehicle: saline with Tween-80 100 % of control | dose: 30.0 mg/kg/injection, schedule: Q01DX005 (ip), vehicle: saline with Tween-80 107 % of control | dose: 60.0 mg/kg/injection, schedule: Q01DX005 (ip), vehicle: saline with Tween-80 91 % of control and 94 % of control | dose: 120.0 mg/kg/injection, schedule: Q01DX005 (ip), vehicle: saline with Tween-80 100 % of control

FC(F)(F)C1(C(F)(F)F)O[Si]2(OC(C(F)(F)F)(C(F)(F)F)c3ccccc32)c2ccccc21 (tested in a mixture with another compound)
inactive: dose: 25.0 mg/kg/injection, schedule: Q04DX002 (ip), vehicle: Klucel (hydroxypropylcellulose) (HPC) 109 % of control | dose: 50.0 mg/kg/injection, schedule: Q04DX002 (ip), vehicle: Klucel (hydroxypropylcellulose) (HPC) 94 % of control | [12] 100 % of control and 102 % of control

CC1(C)OC2CC(=O)OCC23C1CC(O)C1(C)C3CCC2(C)C(c3ccoc3)OC(=O)C3OC321 (stereo unspecified)
inactive: dose: 0.75 mg/kg/injection, schedule: Q01DX009 (ip), vehicle: saline + alcohol 99 % of control | dose: 1.5 mg/kg/injection, schedule: Q01DX009 (ip), vehicle: saline + alcohol 99 % of control | dose: 3.0 mg/kg/injection, schedule: Q01DX009 (ip), vehicle: saline + alcohol 97 % of control | dose: 6.0 mg/kg/injection, schedule: Q01DX009 (ip), vehicle: saline + alcohol 97 % of control | dose: 100.0 mg/kg/injection, schedule: Q04DX002 (ip), vehicle: saline with Tween-80 103 % of control and 98 % of control | dose: 200.0 mg/kg/injection, schedule: Q04DX002 (ip), vehicle: saline with Tween-80 101 % of control and 100 % of control | dose: 400.0 mg/kg/injection, schedule: Q04DX002 (ip), vehicle: saline with Tween-80 91 % of control and 92 % of control

CC1CCCC2C(c3ccccc3)OCN12 (stereo unspecified)
inactive: [9] 108 % of control | [10] 111 % of control | [11] 109 % of control

O=C1CCC(=O)S1
inactive: dose: 12.5 mg/kg/injection, schedule: Q04DX002 (ip), vehicle: saline with Tween-80 100 % of control | dose: 25.0 mg/kg/injection, schedule: Q04DX002 (ip), vehicle: saline with Tween-80 91 % of control | dose: 50.0 mg/kg/injection, schedule: Q04DX002 (ip), vehicle: saline with Tween-80 91 % of control

COC(=O)c1c(-c2ccc(OC)c(OC)c2)cn(C)c1C
inactive: [1] 104 % of control | [2] 96 % of control | [3] 91 % of control

CCCOP(=O)(NNP(=O)(OCCC)OCCC)OCCC
inactive: dose: 50.0 mg/kg/injection, schedule: Q01DX009 (ip), vehicle: saline with Tween-80 106 % of control | dose: 100.0 mg/kg/injection, schedule: Q01DX009 (ip), vehicle: saline with Tween-80 116 % of control | dose: 200.0 mg/kg/injection, schedule: Q01DX009 (ip), vehicle: saline with Tween-80 116 % of control

CC(=O)O[C@H]1/C=C(\C)[C@@H](O)C/C=C(\C)CC(OC(=O)c2ccccc2)[C@H]1C(C)C (stereo partly specified)
inactive: dose: 12.5 mg/kg/injection, schedule: Q01DX005 (ip), vehicle: Klucel (hydroxypropylcellulose) (HPC) 98 % of control | dose: 25.0 mg/kg/injection, schedule: Q01DX005 (ip), vehicle: Klucel (hydroxypropylcellulose) (HPC) 98 % of control | [4] 100 % of control | [5] 95 % of control

Cc1c([C@H](C)[C@@H]2NC[C@@H](C)C[C@H]2O)ccc2c1C[C@H]1[C@H]2CC=C2C[C@@H](O)CC[C@@]21C
inactive: dose: 0.75 mg/kg/injection, schedule: Q01DX009 (ip), vehicle: saline with Tween-80 108 % of control | dose: 1.5 mg/kg/injection, schedule: Q01DX009 (ip), vehicle: saline with Tween-80 115 % of control | dose: 3.0 mg/kg/injection, schedule: Q01DX009 (ip), vehicle: saline with Tween-80 101 % of control and 113 % of control

CC1=CC[C@@H]2[C@@H](CC[C@@]2(C)O)C(C)(C)[C@H]1CC[C@@H]1[C@@]2(C)CC[C@@H](O)C(C)(C)O[C@@H]2CC[C@]1(C)O
inactive: dose: 8.0 mg/kg/injection, schedule: Q01DX005 (ip), vehicle: saline + Tween-80 + alcohol 103 % of control | dose: 16.0 mg/kg/injection, schedule: Q01DX005 (ip), vehicle: saline + Tween-80 + alcohol 103 % of control | dose: 32.0 mg/kg/injection, schedule: Q01DX005 (ip), vehicle: saline + Tween-80 + alcohol 97 % of control | dose: 64.0 mg/kg/injection, schedule: Q01DX005 (ip), vehicle: saline + Tween-80 + alcohol 96 % of control

COc1cc(C2OCCO2)cc(OC)c1O
inactive: [6] 97 % of control | [7] 105 % of control | [8] 101 % of control

COc1ccc(C(=O)Cc2ccccc2C#N)cc1
inactive: [12] 100 % of control | dose: 200.0 mg/kg/injection, schedule: Q04DX002 (ip), vehicle: Klucel (hydroxypropylcellulose) (HPC) 99 % of control | dose: 400.0 mg/kg/injection, schedule: Q04DX002 (ip), vehicle: Klucel (hydroxypropylcellulose) (HPC) 99 % of control
